Assay: Influencing factor test of crystal form A (high temperature, high humidity, light)
Assay type: physicochemical
From the text: Sample purity and solubility data were collected using an Agilent model 1260 high-performance liquid chromatograph (equipped with DAD detector). [table]

[1] = High humidity (25° C., 90% ± 5%), Day 5
[2] = High humidity (25° C., 90% ± 5%), Day 10
[3] = High humidity (25° C., 90% ± 5%), Day 30
[4] = High temperature (60° C.), Day 5
[5] = High temperature (60° C.), Day 10
[6] = High temperature (60° C.), Day 30
[7] = High temperature and humidity (60° C., 75% ± 5%), Day 5
[8] = High temperature and humidity (60° C., 75% ± 5%), Day 10
[9] = High temperature and humidity (60° C., 75% ± 5%), Day 30
[10] = Light exposure (25° C., 4500 Lx ± 500 Lx, NUV 0.9 w/m^2), bare sample, Day 5
[11] = Light exposure (25° C., 4500 Lx ± 500 Lx, NUV 0.9 w/m^2), bare sample, Day 10
[12] = Light exposure (25° C., 4500 Lx ± 500 Lx, NUV 0.9 w/m^2), bare sample, Day 30

O=C1CO[C@H](c2cn(-c3ccc(Br)cc3)nc2-c2ccc(F)cc2)N1CCc1ccc2[nH]c(=O)[nH]c2c1 [Crystal form A]
Content (HPLC, calculated by anhydrous substance) (Day 0, Table M-2): 99.2%
Moisture (KF) (Day 0, Table M-2): 0.11%
Other single impurity RRT~1.10 (HPLC) (Day 0, Table M-2): 0:0.14%
Other single impurity RRT~1.23 (HPLC) (Day 0, Table M-2): 3:0.03%
Other single impurity RRT~1.44 (HPLC) (Day 0, Table M-2): 4:0.03%
Other single impurity RRT~1.53 (HPLC) (Day 0, Table M-2): 3:0.03%
Other single impurity RRT~1.87 (HPLC) (Day 0, Table M-2): 7:0.03%
Total impurities (HPLC) (Day 0, Table M-2): 0.26%
Content (HPLC, calculated by anhydrous substance) (Day 0, Table M-3): 99.8%
Moisture (KF) (Day 0, Table M-3): 0.11%
Other single impurity RRT~1.10 (HPLC) (Day 0, Table M-3): 0:0.13%
Other single impurity RRT~1.24 (HPLC) (Day 0, Table M-3): 4:0.03%
Other single impurity RRT~1.48 (HPLC) (Day 0, Table M-3): 8:0.03%
Other single impurity RRT~1.58 (HPLC) (Day 0, Table M-3): 8:0.03%
Other single impurity RRT~1.97 (HPLC) (Day 0, Table M-3): 7:0.03%
Total impurities (HPLC) (Day 0, Table M-3): 0.25%
Content (HPLC, calculated by anhydrous substance) [1]: 99.4%
Moisture (KF) [1]: 0.21%
Other single impurity RRT~1.10 (HPLC) [1]: 0:0.14%
Other single impurity RRT~1.24 (HPLC) [1]: 4:0.04%
Other single impurity RRT~1.48 (HPLC) [1]: 8:0.03%
Other single impurity RRT~1.59 (HPLC) [1]: 9:0.03%
Other single impurity RRT~1.92 (HPLC) [1]: 2:0.03%
Other single impurity RRT~1.97 (HPLC) [1]: 7:0.03%
Total impurities (HPLC) [1]: 0.30%
Content (HPLC, calculated by anhydrous substance) [2]: 99.7%
Moisture (KF) [2]: 0.23%
Other single impurity RRT~1.10 (HPLC) [2]: 0:0.13%
Other single impurity RRT~1.24 (HPLC) [2]: 4:0.03%
Other single impurity RRT~1.46 (HPLC) [2]: 6:0.03%
Other single impurity RRT~1.56 (HPLC) [2]: 6:0.03%
Other single impurity RRT~1.88 (HPLC) [2]: 8:0.03%
Other single impurity RRT~1.93 (HPLC) [2]: 3:0.03%
Total impurities (HPLC) [2]: 0.28%
Content (HPLC, calculated by anhydrous substance) [3]: 101.3%
Moisture (KF) [3]: 0.10%
Other single impurity RRT~1.10 (HPLC) [3]: 0:0.15%
Other single impurity RRT~1.24 (HPLC) [3]: 4:0.03%
Other single impurity RRT~1.48 (HPLC) [3]: 8:0.03%
Other single impurity RRT~1.59 (HPLC) [3]: 9:0.03%
Other single impurity RRT~1.92 (HPLC) [3]: 2:0.03%
Other single impurity RRT~1.97 (HPLC) [3]: 7:0.03%
Total impurities (HPLC) [3]: 0.30%
Content (HPLC, calculated by anhydrous substance) [4]: 99.1%
Moisture (KF) [4]: 0.09%
Other single impurity RRT~1.10 (HPLC) [4]: 0:0.13%
Other single impurity RRT~1.24 (HPLC) [4]: 4:0.04%
Other single impurity RRT~1.48 (HPLC) [4]: 8:0.03%
Other single impurity RRT~1.59 (HPLC) [4]: 9:0.03%
Other single impurity RRT~1.92 (HPLC) [4]: 2:0.03%
Other single impurity RRT~1.97 (HPLC) [4]: 7:0.03%
Total impurities (HPLC) [4]: 0.29%
Content (HPLC, calculated by anhydrous substance) [5]: 99.8%
Moisture (KF) [5]: 0.09%
Other single impurity RRT~1.10 (HPLC) [5]: 0:0.14%
Other single impurity RRT~1.24 (HPLC) [5]: 4:0.03%
Other single impurity RRT~1.46 (HPLC) [5]: 6:0.03%
Other single impurity RRT~1.56 (HPLC) [5]: 6:0.03%
Other single impurity RRT~1.93 (HPLC) [5]: 3:0.03%
Total impurities (HPLC) [5]: 0.26%
Content (HPLC, calculated by anhydrous substance) [6]: 100.9%
Other single impurity RRT~1.10 (HPLC) [6]: 0:0.14%
Other single impurity RRT~1.24 (HPLC) [6]: 4:0.03%
Other single impurity RRT~1.48 (HPLC) [6]: 8:0.03%
Other single impurity RRT~1.58 (HPLC) [6]: 8:0.03%
Other single impurity RRT~1.92 (HPLC) [6]: 2:0.03%
Other single impurity RRT~1.97 (HPLC) [6]: 7:0.03%
Total impurities (HPLC) [6]: 0.29%
Content (HPLC, calculated by anhydrous substance) [7]: 99.6%
Moisture (KF) [7]: 0.12%
Other single impurity RRT~1.10 (HPLC) [7]: 0:0.14%
Other single impurity RRT~1.24 (HPLC) [7]: 4:0.03%
Other single impurity RRT~1.46 (HPLC) [7]: 6:0.03%
Other single impurity RRT~1.56 (HPLC) [7]: 6:0.03%
Other single impurity RRT~1.88 (HPLC) [7]: 8:0.03%
Other single impurity RRT~1.93 (HPLC) [7]: 3:0.03%
Total impurities (HPLC) [7]: 0.29%
Content (HPLC, calculated by anhydrous substance) [8]: 101.3%
Moisture (KF) [8]: 0.14%
Other single impurity RRT~1.10 (HPLC) [8]: 0:0.14%
Other single impurity RRT~1.24 (HPLC) [8]: 4:0.03%
Other single impurity RRT~1.48 (HPLC) [8]: 8:0.03%
Other single impurity RRT~1.59 (HPLC) [8]: 9:0.03%
Other single impurity RRT~1.97 (HPLC) [8]: 7:0.03%
Total impurities (HPLC) [8]: 0.26%
Content (HPLC, calculated by anhydrous substance) [9]: 99.3%
Moisture (KF) [9]: 0.14%
Other single impurity RRT~1.10 (HPLC) [9]: 0:0.14%
Other single impurity RRT~1.24 (HPLC) [9]: 4:0.03%
Other single impurity RRT~1.48 (HPLC) [9]: 8:0.03%
Other single impurity RRT~1.58 (HPLC) [9]: 8:0.03%
Other single impurity RRT~1.96 (HPLC) [9]: 6:0.03%
Total impurities (HPLC) [9]: 0.26%
Content (HPLC, calculated by anhydrous substance) [10]: 99.6%
Moisture (KF) [10]: 0.10%
Other single impurity RRT~1.10 (HPLC) [10]: 0:0.14%
Other single impurity RRT~1.24 (HPLC) [10]: 4:0.03%
Other single impurity RRT~1.46 (HPLC) [10]: 6:0.03%
Other single impurity RRT~1.56 (HPLC) [10]: 6:0.03%
Other single impurity RRT~1.93 (HPLC) [10]: 3:0.03%
Total impurities (HPLC) [10]: 0.26%
Content (HPLC, calculated by anhydrous substance) [11]: 100.7%
Moisture (KF) [11]: 0.10%
Other single impurity RRT~1.10 (HPLC) [11]: 0:0.14%
Other single impurity RRT~1.24 (HPLC) [11]: 4:0.03%
Other single impurity RRT~1.48 (HPLC) [11]: 8:0.03%
Other single impurity RRT~1.59 (HPLC) [11]: 9:0.03%
Other single impurity RRT~1.97 (HPLC) [11]: 7:0.03%
Total impurities (HPLC) [11]: 0.26%
Content (HPLC, calculated by anhydrous substance) [12]: 99.8%
Moisture (KF) [12]: 0.10%
Other single impurity RRT~1.10 (HPLC) [12]: 0:0.13%
Other single impurity RRT~1.24 (HPLC) [12]: 4:0.03%
Other single impurity RRT~1.48 (HPLC) [12]: 8:0.03%
Other single impurity RRT~1.58 (HPLC) [12]: 8:0.03%
Other single impurity RRT~1.97 (HPLC) [12]: 7:0.03%
Total impurities (HPLC) [12]: 0.25%
